Source: PubChem BioAssay (NCI)
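Briefly, cells in 96-well plates were exposed to five compound concentrations for 48 h, and endpoints were estimated by linear interpolation. Here, GI50 denotes the concentration required for 50% inhibition of growth. TGI marks complete inhibition of growth.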

Legend:
Assay in all cases: NCI anticancer screen, dose series, 48 h
786-0 renal = tested on: 786-0 renal
A498 renal = tested on: A498 renal
A549 NSCLC = tested on: A549 NSCLC
ACHN renal = tested on: ACHN renal
BT-549 breast = tested on: BT-549 breast
CAKI-1 renal = tested on: CAKI-1 renal
CCRF-CEM leukemia = tested on: CCRF-CEM leukemia
COLO 205 colon = tested on: COLO 205 colon
DU-145 prostate = tested on: DU-145 prostate
EKVX NSCLC = tested on: EKVX NSCLC
HCC-2998 colon = tested on: HCC-2998 colon
HCT-116 colon = tested on: HCT-116 colon
HCT-15 colon = tested on: HCT-15 colon
HL-60(TB) leukemia = tested on: HL-60(TB) leukemia
HOP-62 NSCLC = tested on: HOP-62 NSCLC
HOP-92 NSCLC = tested on: HOP-92 NSCLC
HS 578T breast = tested on: HS 578T breast
HT29 colon = tested on: HT29 colon
IGROV1 ovarian = tested on: IGROV1 ovarian
K-562 leukemia = tested on: K-562 leukemia
KM12 colon = tested on: KM12 colon
LOX IMVI melanoma = tested on: LOX IMVI melanoma
M14 melanoma = tested on: M14 melanoma
MALME-3M melanoma = tested on: MALME-3M melanoma
MCF7 breast = tested on: MCF7 breast
MDA-MB-231 breast = tested on: MDA-MB-231 breast
MDA-MB-435 = tested on: MDA-MB-435
MOLT-4 leukemia = tested on: MOLT-4 leukemia
NCI-H226 lung = tested on: NCI-H226 lung
NCI-H23 lung = tested on: NCI-H23 lung
NCI-H460 lung = tested on: NCI-H460 lung
NCI-H522 lung = tested on: NCI-H522 lung
NCI/ADR-RES ovarian = tested on: NCI/ADR-RES ovarian
OVCAR-3 ovarian = tested on: OVCAR-3 ovarian
OVCAR-4 ovarian = tested on: OVCAR-4 ovarian
OVCAR-5 ovarian = tested on: OVCAR-5 ovarian
OVCAR-8 ovarian = tested on: OVCAR-8 ovarian
PC-3 prostate = tested on: PC-3 prostate
RXF 393 renal = tested on: RXF 393 renal
SF-268 CNS = tested on: SF-268 CNS
SF-295 CNS = tested on: SF-295 CNS
SF-539 CNS = tested on: SF-539 CNS
SK-MEL-2 melanoma = tested on: SK-MEL-2 melanoma
SK-MEL-28 melanoma = tested on: SK-MEL-28 melanoma
SK-MEL-5 melanoma = tested on: SK-MEL-5 melanoma
SK-OV-3 ovarian = tested on: SK-OV-3 ovarian
SN12C renal = tested on: SN12C renal
SNB-19 CNS = tested on: SNB-19 CNS
SNB-75 CNS = tested on: SNB-75 CNS
SW-620 colon = tested on: SW-620 colon
T-47D breast = tested on: T-47D breast
TK-10 renal = tested on: TK-10 renal
U251 CNS = tested on: U251 CNS
UACC-257 melanoma = tested on: UACC-257 melanoma
UACC-62 melanoma = tested on: UACC-62 melanoma
UO-31 renal = tested on: UO-31 renal

SMILES: O=[N+]([O-])c1cnc(Sc2ccncn2)s1
- GI50 (786-0 renal): 6.72 µM
- TGI (786-0 renal): 18.4 µM
- GI50 (A498 renal): 18.6 µM
- TGI (A498 renal): 33.3 µM
- GI50 (A549 NSCLC): 10.1 µM
- TGI (A549 NSCLC): 27.1 µM
- GI50 (ACHN renal): 1.81 µM
- TGI (ACHN renal): 3.24 µM
- GI50 (BT-549 breast): 4.84 µM
- TGI (BT-549 breast): 9.55 µM
- GI50 (CAKI-1 renal): 1.64 µM
- TGI (CAKI-1 renal): 3.07 µM
- GI50 (CCRF-CEM leukemia): 1.51 µM
- TGI (CCRF-CEM leukemia): 3.53 µM
- GI50 (COLO 205 colon): 1.75 µM
- TGI (COLO 205 colon): 3.35 µM
- GI50 (DU-145 prostate): 1.8 µM
- TGI (DU-145 prostate): 3.22 µM
- GI50 (EKVX NSCLC): 6.46 µM
- TGI (EKVX NSCLC): 22.1 µM
- GI50 (HCC-2998 colon): 5.46 µM
- TGI (HCC-2998 colon): 10.7 µM
- GI50 (HCT-116 colon): 1.84 µM
- TGI (HCT-116 colon): 3.33 µM
- GI50 (HCT-15 colon): 1.75 µM
- TGI (HCT-15 colon): 3.44 µM
- GI50 (HL-60(TB) leukemia): 1.69 µM
- TGI (HL-60(TB) leukemia): 4.18 µM
- GI50 (HOP-62 NSCLC): 21.8 µM
- TGI (HOP-62 NSCLC): 40.2 µM
- GI50 (HOP-92 NSCLC): 1.99 µM
- TGI (HOP-92 NSCLC): 4.4 µM
- GI50 (HS 578T breast): 2.37 µM
- TGI (HS 578T breast): 5.59 µM
- GI50 (HT29 colon): 2.65 µM
- TGI (HT29 colon): 6.37 µM
- GI50 (IGROV1 ovarian): 1.71 µM
- TGI (IGROV1 ovarian): 3.35 µM
- GI50 (K-562 leukemia): 1.31 µM
- TGI (K-562 leukemia): 3.8 µM
- GI50 (KM12 colon): 10.8 µM
- TGI (KM12 colon): 23.1 µM
- GI50 (LOX IMVI melanoma): 2.65 µM
- TGI (LOX IMVI melanoma): 6.7 µM
- GI50 (M14 melanoma): 2.76 µM
- TGI (M14 melanoma): 7.25 µM
- GI50 (MALME-3M melanoma): 2.07 µM
- TGI (MALME-3M melanoma): 3.94 µM
- GI50 (MCF7 breast): 1.65 µM
- TGI (MCF7 breast): 3.45 µM
- GI50 (MDA-MB-231 breast): 3.98 µM
- TGI (MDA-MB-231 breast): 15.1 µM
- GI50 (MDA-MB-435): 2.95 µM
- TGI (MDA-MB-435): 8.76 µM
- GI50 (MOLT-4 leukemia): 2 µM
- TGI (MOLT-4 leukemia): 5.04 µM
- GI50 (NCI-H226 lung): 8.37 µM
- TGI (NCI-H226 lung): 34 µM
- GI50 (NCI-H23 lung): 8.99 µM
- TGI (NCI-H23 lung): 26.4 µM
- GI50 (NCI-H460 lung): 8.12 µM
- TGI (NCI-H460 lung): 25.9 µM
- GI50 (NCI-H522 lung): 1.62 µM
- TGI (NCI-H522 lung): 3.34 µM
- GI50 (NCI/ADR-RES ovarian): 11.3 µM
- TGI (NCI/ADR-RES ovarian): 38.3 µM
- GI50 (OVCAR-3 ovarian): 1.74 µM
- TGI (OVCAR-3 ovarian): 3.16 µM
- GI50 (OVCAR-4 ovarian): 1.76 µM
- TGI (OVCAR-4 ovarian): 3.27 µM
- GI50 (OVCAR-5 ovarian): 14 µM
- TGI (OVCAR-5 ovarian): 28.3 µM
- GI50 (OVCAR-8 ovarian): 3.94 µM
- TGI (OVCAR-8 ovarian): 13.1 µM
- GI50 (PC-3 prostate): 2.73 µM
- TGI (PC-3 prostate): 17 µM
- GI50 (RXF 393 renal): 0.312 µM
- TGI (RXF 393 renal): 1.68 µM
- GI50 (SF-268 CNS): 2.65 µM
- TGI (SF-268 CNS): 7.29 µM
- GI50 (SF-295 CNS): 18 µM
- TGI (SF-295 CNS): 41 µM
- GI50 (SF-539 CNS): 5.61 µM
- TGI (SF-539 CNS): 14.9 µM
- GI50 (SK-MEL-2 melanoma): 7.99 µM
- TGI (SK-MEL-2 melanoma): 21.9 µM
- GI50 (SK-MEL-28 melanoma): 1.98 µM
- TGI (SK-MEL-28 melanoma): 3.69 µM
- GI50 (SK-MEL-5 melanoma): 4.86 µM
- TGI (SK-MEL-5 melanoma): 14.6 µM
- GI50 (SK-OV-3 ovarian): 21.2 µM
- TGI (SK-OV-3 ovarian): 45.4 µM
- GI50 (SN12C renal): 3.24 µM
- TGI (SN12C renal): 8.41 µM
- GI50 (SNB-19 CNS): 15.9 µM
- TGI (SNB-19 CNS): 31.9 µM
- GI50 (SNB-75 CNS): 3.84 µM
- TGI (SNB-75 CNS): 18.8 µM
- GI50 (SW-620 colon): 1.66 µM
- TGI (SW-620 colon): 3.29 µM
- GI50 (T-47D breast): 2.16 µM
- TGI (T-47D breast): 4.68 µM
- GI50 (TK-10 renal): 2.14 µM
- TGI (TK-10 renal): 4.22 µM
- GI50 (U251 CNS): 3.49 µM
- TGI (U251 CNS): 11.5 µM
- GI50 (UACC-257 melanoma): 2.94 µM
- TGI (UACC-257 melanoma): 7.5 µM
- GI50 (UACC-62 melanoma): 6.12 µM
- TGI (UACC-62 melanoma): 16.9 µM
- GI50 (UO-31 renal): 1.75 µM
- TGI (UO-31 renal): 3.2 µM
